Source: US20260232658A1, “AZETIDINYL BENZOXAZOLE COMPOUNDS AND THEIR USE AS MER AND AXL INHIBITORS” (DONG-A ST CO., LTD., priority 2022, published 2026)

How the values were obtained:
TYRO3 (455-end) = target: T1, TYRO3 (455-end) (Homo sapiens, UniProt Q06418); assay: HTRF kinase activity biochemical assay, TYRO3; conditions: recombinant kinase, 10 uM ATP, 30 minutes pre-incubation; read-out: HTRF TYRO IC50;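 further: biotinylated tyrosine kinase substrate phosphorylation detected via streptavidin-XL665 and Eu3+-cryptate anti-phospho antibody time-resolved fluorescence, read after 1 h detection at room temperature, 384-well format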
T1 construct: TYRO3 (455-end); purchased SignalChem, Canada
T1 sequence (Q06418 455-890 limits assumed): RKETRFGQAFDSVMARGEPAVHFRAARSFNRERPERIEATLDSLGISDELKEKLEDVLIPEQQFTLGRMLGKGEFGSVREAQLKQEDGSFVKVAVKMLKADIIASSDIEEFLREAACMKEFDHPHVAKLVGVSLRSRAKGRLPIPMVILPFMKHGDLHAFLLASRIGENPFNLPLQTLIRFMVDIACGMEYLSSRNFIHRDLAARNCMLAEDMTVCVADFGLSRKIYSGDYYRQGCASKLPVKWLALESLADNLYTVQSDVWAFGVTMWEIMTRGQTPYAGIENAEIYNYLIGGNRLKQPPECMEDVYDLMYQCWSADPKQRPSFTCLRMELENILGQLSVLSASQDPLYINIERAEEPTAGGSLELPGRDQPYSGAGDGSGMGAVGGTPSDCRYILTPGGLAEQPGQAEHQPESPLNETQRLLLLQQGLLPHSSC

human MER (528-end) = target: T2, human MER (528-end) (Homo sapiens, UniProt Q12866); assay: HTRF kinase activity biochemical assay, MER; conditions: recombinant kinase, 10 uM ATP, 30 minutes pre-incubation; read-out: HTRF MERTK IC50;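 further: phosphorylation of a biotin-tagged tyrosine kinase substrate detected by Eu3+-cryptate antibody and streptavidin-XL665 time-resolved fluorescence, read after 1 h at room temperature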
T2 construct: human MER (528-end); purchased Carnabio, Japan
T2 sequence (Q12866 528-999 limits assumed): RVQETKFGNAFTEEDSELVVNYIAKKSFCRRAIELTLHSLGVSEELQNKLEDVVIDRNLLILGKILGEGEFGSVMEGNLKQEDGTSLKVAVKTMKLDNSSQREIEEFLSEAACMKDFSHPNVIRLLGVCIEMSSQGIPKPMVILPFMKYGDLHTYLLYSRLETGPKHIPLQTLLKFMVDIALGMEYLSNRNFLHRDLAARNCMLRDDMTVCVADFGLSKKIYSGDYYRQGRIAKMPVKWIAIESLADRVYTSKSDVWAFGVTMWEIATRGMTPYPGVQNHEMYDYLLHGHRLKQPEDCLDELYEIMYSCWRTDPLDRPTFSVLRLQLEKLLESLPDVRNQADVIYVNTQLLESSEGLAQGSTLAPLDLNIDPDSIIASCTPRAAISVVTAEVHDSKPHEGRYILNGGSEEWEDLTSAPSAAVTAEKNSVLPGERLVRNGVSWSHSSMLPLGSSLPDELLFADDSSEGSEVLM

human AXL (473-end) = target: T3, human AXL (473-end) (Homo sapiens, UniProt P30530); assay: HTRF kinase activity biochemical assay, AXL; conditions: recombinant kinase, 10 uM ATP, 30 minutes pre-incubation; read-out: HTRF AXL IC50;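 further: phosphorylation of a biotinylated tyrosine kinase substrate detected via Eu3+-cryptate anti-TK antibody and streptavidin-XL665, fluorescence read after a 1 h incubation at room temperature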
T3 construct: human AXL (473-end); purchased SignalChem, Canada
T3 sequence (P30530 473-894 limits assumed): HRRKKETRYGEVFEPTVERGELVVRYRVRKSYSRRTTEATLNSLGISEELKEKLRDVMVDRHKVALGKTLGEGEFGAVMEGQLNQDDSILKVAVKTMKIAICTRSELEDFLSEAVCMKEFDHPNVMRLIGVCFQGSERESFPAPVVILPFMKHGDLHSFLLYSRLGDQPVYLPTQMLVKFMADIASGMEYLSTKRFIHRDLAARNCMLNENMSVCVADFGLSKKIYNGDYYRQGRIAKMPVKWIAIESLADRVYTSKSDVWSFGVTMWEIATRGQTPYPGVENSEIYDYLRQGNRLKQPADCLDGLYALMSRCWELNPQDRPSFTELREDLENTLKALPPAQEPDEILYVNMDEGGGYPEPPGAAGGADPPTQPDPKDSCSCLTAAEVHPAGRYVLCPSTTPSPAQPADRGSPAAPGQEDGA

Structure (SMILES)	IC50 (TYRO3 (455-end))	IC50 (human MER (528-end))	IC50 (human AXL (473-end))
Cn1cc(Nc2ncc(C3CN(c4nc5ccc(O)cc5o4)C3)nc2C(N)=O)cn1 [Example 20, 6-[I1-(6-hydroxy-1,3-benzoxazol-2-yl)azetidin-3-yl]-3-[(1-methyl-1H-pyrazol-4-yl)amino]pyrazine-2-carboxamide]	980 nM	29 nM	–
Cn1cc(Nc2ncc(C3CN(c4nc5ccc(OCCO)cc5o4)C3)nc2C(N)=O)cn1 [Example 40, 6-{1-[6-(2-hydroxyethoxy)-1,3-benzoxazol-2-yl]azetidin-3-yl}-3-[(1-methyl-1H-pyrazol-4-yl)amino]pyrazine-2-carboxamide]	460 nM	2 nM	8 nM
Cn1cc(Nc2ncc(C3CN(c4nc5ccc(OCC6(O)COC6)cc5o4)C3)nc2C(N)=O)cn1 [Example 57, 6-(1-{6-[(3-hydroxyoxetan-3-yl)methoxy]-1,3-benzoxazol-2-yl}azetidin-3-yl)-3-[(1-methyl-1H-pyrazol-4-yl)amino]pyrazine-2-carboxamide]	2310 nM	7 nM	8 nM
CC(C)(O)CCOc1ccc2nc(N3CC(c4cnc(Nc5cnn(CC(C)(C)O)c5)c(C(N)=O)n4)C3)oc2c1 [Example 96, 6-{1-[6-(3-hydroxy-3-methylbutoxy)-1,3-benzoxazol-2-yl]azetidin-3-yl}-3-{[1-(2-hydroxy-2-methylpropyl)-1H-pyrazol-4-yl]amino}pyrazine-2-carboxamide]	1610 nM	3 nM	12 nM
Cn1cc(Nc2ncc(C3CN(c4nc5ccc(OCC(O)CO)cc5o4)C3)nc2C(N)=O)cn1 (stereo not drawn) [Example 43, 6-{1-[6-(2,3-dihydroxypropoxy)-1,3-benzoxazol-2-yl]azetidin-3-yl}-3-[(1-methyl-1H-pyrazol-4-yl)amino]pyrazine-2-carboxamide]	2140 nM	9 nM	25 nM
COCCn1cc(-c2ccc3nc(N4CC(c5cnc(Nc6cnn(C)c6)c(C(N)=O)n5)C4)oc3c2)cn1 [Example 91, 6-(1-{6-[1-(2-methoxyethyl)-1H-pyrazol-4-yl]-1,3-benzoxazol-2-yl}azetidin-3-yl)-3-[(1-methyl-1H-pyrazol-4-yl)amino]pyrazine-2-carboxamide]	1430 nM	2 nM	4 nM
Cn1cnc(COc2ccc3nc(N4CC(c5cnc(Nc6cnn(C)c6)c(C(N)=O)n5)C4)oc3c2)c1 [Example 98, 6-(1-{6-[(1-methyl-1H-imidazol-4-yl)methoxy]-1,3-benzoxazol-2-yl}azetidin-3-yl)-3-[(1-methyl-1H-pyrazol-4-yl)amino]pyrazine-2-carboxamide]	1280 nM	1.1 nM	7 nM
Cn1cc(Nc2ncc(C3CN(c4nc5ccc(C(=O)O)cc5o4)C3)nc2C(N)=O)cn1 [Example 18A, 2-(3-f{6-carbamoyl-5-[(1-methyl-1H-pyrazol-4-yl)amino]pyrazin-2-yl}azetidin-1-yl)-1,3-benzoxazole-6-carboxylic acid]	> 12500 nM	3710 nM	5900 nM
Cn1cc(Nc2ncc(C3CN(c4nc5ccc(C6=CCCC6)cc5o4)C3)nc2C(N)=O)cn1 [Example 10A, 6-{1-[6-(cyclopent-1-en-1-yl)-1,3-benzoxazol-2-yl]azetidin-3-yl}-3-[(1-methyl-1H-pyrazol-4-yl)amino]pyrazine-2-carboxamide]	690 nM	3 nM	4 nM
COCCn1cc(Nc2ncc(C3CN(c4nc5ccccc5o4)C3)nc2C(N)=O)cn1 [Example 29, 6-[1-(1,3-benzoxazol-2-yl)azetidin-3-yl]-3-{[1-(2-methoxyethyl)-1H-pyrazol-4-yl]amino}pyrazine-2-carboxamide]	340 nM	5 nM	10 nM
COC[C@H]1CCCN1C(=O)Cc1ccc2nc(N3CC(c4cnc(Nc5cnn(C)c5)c(C(N)=O)n4)C3)oc2c1 [Example 71, 6-[1-(6-{2-[(2R)-2-(methoxymethyl)pyrrolidin-1-yl]-2-oxoethyl}-1,3-benzoxazol-2-yl)azetidin-3-yl]-3-[(1-methyl-1H-pyrazol-4-yl)amino]pyrazine-2-carboxamide]	3730 nM	2 nM	4 nM
Cn1cc(Nc2ncc(C3CN(c4nc5ccc(OCC6COC(C)(C)OC6)cc5o4)C3)nc2C(N)=O)cn1 [Example 51A, 6-(1-{6-[(2,2-dimethyl-1,3-dioxan-5-yl)methoxy]-1,3-benzoxazol-2-yl}azetidin-3-yl)-3-[(1-methyl-1H-pyrazol-4-yl)amino]pyrazine-2-carboxamide]	2380 nM	2 nM	17 nM
Cn1cc(Nc2ncc(C3CN(c4nc5ccc(OCC(=O)O)cc5o4)C3)nc2C(N)=O)cn1 [Example 73A, {[2-(3-f{6-carbamoyl-5-[(1-methyl-1H-pyrazol-4-yl)amino]pyrazin-2-yl}azetidin-1-yl)-1,3-benzoxazol-6-yl]oxy}acetic acid]	–	150 nM	210 nM

Further lines, results first:

IC50 (TYRO3 (455-end))	IC50 (human MER (528-end))	IC50 (human AXL (473-end))	Structure (SMILES)
130 nM	2 nM	4 nM	Cc1ccc2nc(N3CC(c4cnc(Nc5cn[nH]c5)c(C(N)=O)n4)C3)oc2c1 [Example 74, 6-[1-(6-methyl-1,3-benzoxazol-2-yl)azetidin-3-yl]-3-[(1H-pyrazol-4-yl)amino]pyrazine-2-carboxamide]
83 nM	< 1 nM	2 nM	CCc1ccc2nc(N3CC(c4cnc(Nc5cnn(C)c5)c(C(N)=O)n4)C3)oc2c1 [Example 5, 6-[1-(6-ethyl-1,3-benzoxazol-2-yl)azetidin-3-yl]-3-[(1-methyl-1H-pyrazol-4-yl)amino]pyrazine-2-carboxamide]
250 nM	2 nM	6 nM	C=CCOP(=O)(OCC=C)OC(C)(C)CCOc1ccc2nc(N3CC(c4cnc(Nc5cnn(C)c5)c(C(N)=O)n4)C3)oc2c1 [Example 77A, 4-{[2-(3-f{6-carbamoyl-5-[(1-methyl-1H-pyrazol-4-yl)amino]pyrazin-2-yl}azetidin-1-yl)-1,3-benzoxazol-6-yl]oxy}-2-methylbutan-2-yl diprop-2-en-1-yl phosphate]
110 nM	< 1 nM	< 1 nM	Cn1cc(Nc2ncc(C3CN(c4nc5ccc(C6CCCC6)cc5o4)C3)nc2C(N)=O)cn1 [Example 10, 6-[1-(6-cyclopentyl-1,3-benzoxazol-2-yl)azetidin-3-yl]-3-[(1-methyl-1H-pyrazol-4-yl)amino]pyrazine-2-carboxamide]
74 nM	2 nM	5 nM	Cn1cc(Nc2ncc(C3CN(c4nc5ccc(C6=CCOC6)cc5o4)C3)nc2C(N)=O)cn1 [Example 15A, 6-{1-[6-(2,5-dihydrofuran-3-yl)-1,3-benzoxazol-2-yl]azetidin-3-yl}-3-[(1-methyl-1H-pyrazol-4-yl)amino]pyrazine-2-carboxamide]
130 nM	1 nM	2 nM	COCCCc1ccc2nc(N3CC(c4cnc(Nc5cnn(C)c5)c(C(N)=O)n4)C3)oc2c1 [Example 33, 6-{1-[6-(3-methoxypropyl)-1,3-benzoxazol-2-yl]azetidin-3-yl}-3-[(1-methyl-1H-pyrazol-4-yl)amino]pyrazine-2-carboxamide]
241 nM	–	2 nM	Cn1cc(Nc2ncc(C3CN(c4nc5ccc(/C=C/C(C)(C)O)cc5o4)C3)nc2C(N)=O)cn1 [Example 17, 6-(1-{6-[(1E)-3-hydroxy-3-methylbut-1-en-1-yl]-1,3-benzoxazol-2-yl}azetidin-3-yl)-3-[(1-methyl-1H-pyrazol-4-yl)amino]pyrazine-2-carboxamide]
